According to patent US7915239B2, “Process for treating lameness administration of a bisphosphonic acid derivative” (Ceva Sante Animale, priority 1998, dated 2011):

Assays:
Type in all cases: in vivo
[1] = tested on: lameness associated with bone lesions during osteochondrosis; experiment: Clinical study in horses with lameness associated with sub-chondral cysts during osteochondrosis; details: procedure as Example 1
Procedure: The study was carried out on 24 horses, the diagnosis of the navicular disease causing lameness being based on the following criteria: • local signs in the palmar region: heat, swelling, pain • functional signs of limping graded on a scale from 0 (no sign of limping) to 4 (trouble in bearing weight when at rest and/or in motion and difficulty in moving around) • a functional test of locomotion after flexing the palmar region, also assessed on a scale from 0 (locomotion not changed by flexure) to 4 (start of suppression of bearing weight) • a radiological examination to assess radiological signs in the palmar region qualitatively. All the animals received, as a single treatment, disodium tiludronate in the form of an injectable solution administered intravenously at a dose of 0.1 mg/kg, at a weekly administration rate for 6 to 10 weeks. The first day of treatment corresponds to D0. To assess the effects of the treatment, the animals were reviewed 1 month after D0 (M1), 2 months after D0 (M2) and 6 months after D0 (M6). The effects of the treatment were assessed with regard to: • the local signs, the functional signs and the test of locomotion after flexure as defined during inclusion of the animal into the test • a radiological examination to assess the change in the radiological signs • an assessment of the resumption of the animal's sporting activity. […] A clinical study was carried out to evaluate the effects of a treatment with disodium tiludronate on horses which develop lameness associated with bone lesions in the form of sub-chondral cysts during osteochondrosis. The test procedure and the clinical monitoring of the animals were the same as those described in Example 1, except that the local, functional and radiological signs were evaluated in the joints affected by osteochondrosis. 5 horses were included in this test. The results obtained were as follows (expressed as a percentage of animals present in each category): […]

[2] = tested on: lameness during enthesopathy of the insertion of the tendons and the ligaments; experiment: Clinical study in horses with lameness during enthesopathy of the insertion of the tendons and the ligaments; details: procedure as Example 1
Procedure: The study was carried out on 24 horses, the diagnosis of the navicular disease causing lameness being based on the following criteria: • local signs in the palmar region: heat, swelling, pain • functional signs of limping graded on a scale from 0 (no sign of limping) to 4 (trouble in bearing weight when at rest and/or in motion and difficulty in moving around) • a functional test of locomotion after flexing the palmar region, also assessed on a scale from 0 (locomotion not changed by flexure) to 4 (start of suppression of bearing weight) • a radiological examination to assess radiological signs in the palmar region qualitatively. All the animals received, as a single treatment, disodium tiludronate in the form of an injectable solution administered intravenously at a dose of 0.1 mg/kg, at a weekly administration rate for 6 to 10 weeks. The first day of treatment corresponds to D0. To assess the effects of the treatment, the animals were reviewed 1 month after D0 (M1), 2 months after D0 (M2) and 6 months after D0 (M6). The effects of the treatment were assessed with regard to: • the local signs, the functional signs and the test of locomotion after flexure as defined during inclusion of the animal into the test • a radiological examination to assess the change in the radiological signs • an assessment of the resumption of the animal's sporting activity. […] A clinical study was carried out to evaluate the effects of a treatment with disodium tiludronate on horses which develop lameness during enthesopathy of the insertion of the tendons and the ligaments. The test procedure and the clinical monitoring of the animals were the same as those described in Example 1, except that the local, functional and radiological signs were evaluated in the region of the tendon or ligament insertions at the source of lameness. 6 horses were included in this test. The results obtained were as follows (expressed as a percentage of animals present in each category): […]

[3] = tested on: lameness during navicular disease (podotrochlear syndrome); experiment: Clinical study in horses with lameness during navicular disease (podotrochlear syndrome); details: for percentage of animals in category Average / percentage of animals in category Favourable / percentage of animals in category Mediocre / percentage of animals in category Poor / percentage of animals in category Very favourable: 0.1 mg/kg i.v. weekly for 6 to 10 weeks
Procedure: A clinical study was carried out to evaluate the effects of a treatment with disodium tiludronate on horses which develop lameness during navicular disease (also known as podotrochlear syndrome). The study was carried out on 24 horses, the diagnosis of the navicular disease causing lameness being based on the following criteria: • local signs in the palmar region: heat, swelling, pain • functional signs of limping graded on a scale from 0 (no sign of limping) to 4 (trouble in bearing weight when at rest and/or in motion and difficulty in moving around) • a functional test of locomotion after flexing the palmar region, also assessed on a scale from 0 (locomotion not changed by flexure) to 4 (start of suppression of bearing weight) • a radiological examination to assess radiological signs in the palmar region qualitatively. To be included, the animal had to show no signs or lesions of septic arthritis, or any fractures of the bones in the palmar region. Also, it needed to have not received an injection for anti-inflammatory treatment in the joints of the palmar region. The wearing of an orthopaedic shoe was not contra-indicated since most of the animals had been […] for several weeks and were already wearing a shoe of this type. All the animals received, as a single treatment, disodium tiludronate in the form of an injectable solution administered intravenously at a dose of 0.1 mg/kg, at a weekly administration rate for 6 to 10 weeks. The first day of treatment corresponds to D0. To assess the effects of the treatment, the animals were reviewed 1 month after D0 (M1), 2 months after D0 (M2) and 6 months after D0 (M6). The effects of the treatment were assessed with regard to: • the local signs, the functional signs and the test of locomotion after flexure as defined during inclusion of the animal into the test • a radiological examination to assess the change in the radiological signs • an assessment of the resumption of the animal's sporting activity. […] The table below summarizes the effects of the treatment (expressed as a percentage of animals present in each category): […]

[4] = tested on: lameness during bone spavin; experiment: Clinical study in horses with lameness during bone spavin (osteoarthrosis of the distal stage of the tarsus); details: for percentage of animals in category Average / percentage of animals in category Favourable / percentage of animals in category Mediocre / percentage of animals in category Poor / percentage of animals in category Very favourable: procedure as Example 1
Procedure: The study was carried out on 24 horses, the diagnosis of the navicular disease causing lameness being based on the following criteria: • local signs in the palmar region: heat, swelling, pain • functional signs of limping graded on a scale from 0 (no sign of limping) to 4 (trouble in bearing weight when at rest and/or in motion and difficulty in moving around) • a functional test of locomotion after flexing the palmar region, also assessed on a scale from 0 (locomotion not changed by flexure) to 4 (start of suppression of bearing weight) • a radiological examination to assess radiological signs in the palmar region qualitatively.
All the animals received, as a single treatment, disodium tiludronate in the form of an injectable solution administered intravenously at a dose of 0.1 mg/kg, at a weekly administration rate for 6 to 10 weeks. The first day of treatment corresponds to D0.
To assess the effects of the treatment, the animals were reviewed 1 month after D0 (M1), 2 months after D0 (M2) and 6 months after D0 (M6). The effects of the treatment were assessed with regard to: • the local signs, the functional signs and the test of locomotion after flexure as defined during inclusion of the animal into the test • a radiological examination to assess the change in the radiological signs • an assessment of the resumption of the animal's sporting activity.
A clinical study was carried out in order to evaluate the effects of a treatment with disodium tiludronate on horses which develop lameness during bone spavin (which is osteoarthrosis of the distal stage of the tarsus).
The test procedure and the clinical monitoring of the animals were the same as those described in Example 1, except that the local, functional and radiological signs were assessed in the region of the hock.
5 horses were included in this test.
The results obtained were as follows (expressed as a percentage of animals present in each category): […]

[5] = Examination at M1 (1 month after D0)
[6] = Examination at M2 (2 months after D0)
[7] = Examination at M6 (6 months after D0)

SMILES: O=P(O)(O)C(Sc1ccc(Cl)cc1)P(=O)(O)O [disodium tiludronate, 4-chlorophenylthiomethylenebisphosphonic acid]
- percentage of animals in category Average [1, 5]: 40%
- percentage of animals in category Favourable [1, 5]: 0%
- percentage of animals in category Mediocre [1, 5]: 0%
- percentage of animals in category Poor [1, 5]: 20%
- percentage of animals in category Very favourable [1, 5]: 40%
- percentage of animals in category Average [1, 6]: 20%
- percentage of animals in category Favourable [1, 6]: 40%
- percentage of animals in category Mediocre [1, 6]: 0%
- percentage of animals in category Poor [1, 6]: 20%
- percentage of animals in category Very favourable [1, 6]: 20%
- percentage of animals in category Average [1, 7]: 0%
- percentage of animals in category Favourable [1, 7]: 0%
- percentage of animals in category Mediocre [1, 7]: 40%
- percentage of animals in category Poor [1, 7]: 0%
- percentage of animals in category Very favourable [1, 7]: 60%
- percentage of animals in category Average [2, 5]: 33%
- percentage of animals in category Favourable [2, 5]: 50%
- percentage of animals in category Mediocre [2, 5]: 17%
- percentage of animals in category Poor [2, 5]: 0%
- percentage of animals in category Very favourable [2, 5]: 0%
- percentage of animals in category Average [2, 6]: 33%
- percentage of animals in category Favourable [2, 6]: 67%
- percentage of animals in category Mediocre [2, 6]: 0%
- percentage of animals in category Poor [2, 6]: 0%
- percentage of animals in category Very favourable [2, 6]: 0%
- percentage of animals in category Average [2, 7]: 0%
- percentage of animals in category Favourable [2, 7]: 40%
- percentage of animals in category Mediocre [2, 7]: 20%
- percentage of animals in category Poor [2, 7]: 0%
- percentage of animals in category Very favourable [2, 7]: 40%
- percentage of animals in category Average [3, 5]: 38%
- percentage of animals in category Favourable [3, 5]: 46%
- percentage of animals in category Mediocre [3, 5]: 4%
- percentage of animals in category Poor [3, 5]: 4%
- percentage of animals in category Very favourable [3, 5]: 8%
- percentage of animals in category Average [3, 6]: 26%
- percentage of animals in category Favourable [3, 6]: 43%
- percentage of animals in category Mediocre [3, 6]: 5%
- percentage of animals in category Poor [3, 6]: 0%
- percentage of animals in category Very favourable [3, 6]: 26%
- percentage of animals in category Average [3, 7]: 27%
- percentage of animals in category Favourable [3, 7]: 46%
- percentage of animals in category Mediocre [3, 7]: 9%
- percentage of animals in category Poor [3, 7]: 0%
- percentage of animals in category Very favourable [3, 7]: 18%
- time at which the benefit of the treatment is optimal ([3]; after administration of the treatment is started): 2 months
- share of animals with complete recovery ([3]; at the end of administration of the treatment): a quarter of the animals
- radiological examination of the palmar region ([3]; pathological radiological signs): did not reveal any change in kinetics of the pathological radiological signs
- percentage of animals in category Average [4, 5]: 60%
- percentage of animals in category Favourable [4, 5]: 40%
- percentage of animals in category Mediocre [4, 5]: 0%
- percentage of animals in category Poor [4, 5]: 0%
- percentage of animals in category Very favourable [4, 5]: 0%
- percentage of animals in category Average [4, 6]: 0%
- percentage of animals in category Favourable [4, 6]: 60%
- percentage of animals in category Mediocre [4, 6]: 0%
- percentage of animals in category Poor [4, 6]: 0%
- percentage of animals in category Very favourable [4, 6]: 40%
- percentage of animals in category Average [4, 7]: 20%
- percentage of animals in category Favourable [4, 7]: 20%
- percentage of animals in category Mediocre [4, 7]: 0%
- percentage of animals in category Poor [4, 7]: 20%
- percentage of animals in category Very favourable [4, 7]: 40%
- change in lameness induced by bone spavin after treatment ([4]; after treatment): favourable to very favourable in most of the animals
